From patent US12281098B2, “Five-membered-fused six-membered compound, preparation method, pharmaceutical composition and use” (HANGZHOU POLYMED BIOPHARMACEUTICALS, INC., priority 2021, dated 2025)
Where two headings read alike, the source gives them in different places.

Experiments:
THP-1 cells = experiment: LPS-stimulated cytokine (TNFα) release in THP-1; type: cell-based, Human; conditions: LPS 100 ng/mL, 5 hours, TNF-α ELISA, read-out: Inhibition IC50 (nM) of cytokines (TNFα) against LPS-stimulated inflammatory responses in THP-1 cells
Protocol: THP-1 cells were cultured in suspension in RPMI 1640 complete medium (containing 10% serum, 1% penicillin-streptomycin, and 55 μM β-mercaptoethanol). THP-1 cells were collected, centrifuged at 350×g at room temperature to discard the supernatant, and resuspended in RPMI 1640 complete medium to a concentration of 2×10^6 cells per mL. THP-1 cells were spread into a 96-well plate at a concentration of 2×10^5 cells per well, and different concentrations of the compound to be tested were added thereto. The plate was incubated in a 37° C. cell culture incubator with 5% CO2 for 60 minutes. 50 μL of LPS at a final concentration of 100 ng/mL was added to a 96-well plate, and incubated in a 37° C. cell culture incubator for 5 hours. The cell culture plate was then taken out from the incubator, and centrifuged at 350×g at low temperature for 5 minutes to collect 150 μL of the supernatant. Referring to the instructions in the Human TNF-α Duoset ELISA Kit, the level of TNF-α in the cell culture supernatant was detected.
Data on the inhibitory activity of cytokines (TNFα) against LPS-stimulated inflammatory responses in THP-1 cells are shown in Tables 3 and 4.

IRAK4 kinase = target: T1, IRAK4 kinase (Homo sapiens, UniProt Q9NWZ3); experiment: Compound inhibition of IRAK4 kinase activity (fluorescence microfluidic mobility shift assay); type: biochemical; conditions: 10 μM ATP, 6 nM IRAK4 kinase
T1 construct: purchased Carna 09-145
T1 sequence (Q9NWZ3 1-460): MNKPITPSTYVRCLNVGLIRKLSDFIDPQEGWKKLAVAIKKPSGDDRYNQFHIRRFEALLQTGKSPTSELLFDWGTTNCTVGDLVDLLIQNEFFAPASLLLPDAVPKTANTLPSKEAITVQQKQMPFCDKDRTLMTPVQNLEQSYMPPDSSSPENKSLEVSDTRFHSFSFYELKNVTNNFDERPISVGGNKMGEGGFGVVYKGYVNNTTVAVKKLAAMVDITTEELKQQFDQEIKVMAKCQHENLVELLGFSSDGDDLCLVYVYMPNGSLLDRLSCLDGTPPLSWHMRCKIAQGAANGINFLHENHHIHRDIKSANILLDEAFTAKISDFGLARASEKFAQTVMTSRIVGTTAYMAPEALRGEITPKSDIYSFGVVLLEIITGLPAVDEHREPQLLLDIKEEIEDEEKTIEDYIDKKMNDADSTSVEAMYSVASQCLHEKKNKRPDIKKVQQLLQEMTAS
Protocol: Based on the experimental method of fluorescence microfluidic mobility shift assay, the IC50 value of the compound for competitive binding of ATP to IRAK4 kinase was determined. The initial detection concentration of the compound was 10 μM, which was 4-fold serially diluted to 0.38 nM and assayed in duplicate. In this case, commercially available staurosporine was the standard control for the assay.
1) IRAK4 kinase was dissolved in kinase buffer (50 mM HEPES pH 7.5, 10 mM MgCl2, 2 mM DDT, and 0.01% Brij-35) at a final concentration of 6 nM.
2) The substrate peptide FAM-P8 and ATP were dissolved in the above kinase buffer, and the final concentrations of the substrate peptide FAM-P8 and ATP for IRAK4 were 3 μM and 10 μM, respectively.
3) Compound dilution: The compound was first diluted to 50 μM, and then 4-fold serially diluted with DMSO. In this case, the solution without compound and kinase served as the blank control, corresponding to the “minimum value” shown below; the solution without compound but containing kinase, adenosine 5′-triphosphate disodium salt hydrate, DMSO, and the buffer served as the positive control, corresponding to the “maximum value” shown below.
4) Kinase reaction and termination: 10 μL of the kinase buffer was added to a 384-well plate containing 5 μL of the compound to be tested, and the mixture was incubated at room temperature for 10 minutes; another 10 μL of buffer containing the substrate peptide and adenosine 5′-triphosphate disodium salt hydrate was added to the 384-well plate, and after incubation at 28° C. for 1 hour, 25 μL of termination solution (100 mM HEPES pH 7.5, 50 mM EDTA, 0.2% Coating Reagent #3, and 0.015% Brij-35) was added to each well to terminate the reaction.
5) Data reading: CaliperEZ Reader II instrument was used to read the conversion rate data. Setting conditions: downstream voltage as −500 V, upstream voltage as −2250 V, base pressure as −0.5 PSI, and screening pressure as −1.2 PSI.
6) Data calculation: the conversion rate data was copied from CaliperEZ Reader II, and the conversion rate was converted into inhibition rate data. The calculation formula is as follows: Inhibition percentage (%)=(maximum value−conversion rate)/(maximum value−minimum value)*100%
IC50 values were fitted with XLFit excel add-in version 5.4.0.8.

[1] = target: T2, IRAK4 protein in THP-1 cells (Homo sapiens, UniProt Q9NWZ3); experiment: IRAK4 protein degradation in THP-1 induced by PROTAC (Western Blot); type: cell-based; conditions: Table 6, estimated bins, GAPDH internal reference
T2 construct: endogenous in cells; host or cells: THP-1
T2 sequence (Q9NWZ3 1-460): T1 sequence (Q9NWZ3 1-460)
Protocol: 3.1. Based on the experimental method of immunoblot, i.e., Western Blot, THP-1 cell samples processed by gel electrophoresis were stained with specific antibodies, and the degradation activity of the compounds on the IRAK4 protein in THP-1 cells was determined by analyzing the position of the staining and the depth of the staining. The detection concentrations of the compounds were 0 μM, 0.3 μM, 1 μM, and 3 μM, and the compounds were used to treat the cells for 8 hours, 16 hours, 24 hours, and 48 hours. In this case, glyceraldehyde-3-phosphate dehydrogenase (GAPDH) was the internal reference protein for the assay.
THP-1 cells were spread into a 6-well plate at a density of 1.5×10^6 cells per mL, and incubated in a 37° C. cell culture incubator with 5% CO2 for 2 hours. The compound was diluted with DMSO to 0.6 mM, 0.2 mM, and 0.06 mM, respectively. 10 μL of compound solution was added to the corresponding wells, and the plate was incubated in the incubator for 16 hours, 24 hours, and 48 hours, respectively. The drug-treated THP-1 cells were collected from the wells, added with 120 μL of RIPA lysis buffer containing protease inhibitor, phosphatase inhibitor cocktail 2, and phosphatase inhibitor cocktail 3, and lysed on wet ice for 30 minutes. The cell lysate was then centrifuged at low temperature and high speed for 5 minutes, and the supernatant was collected. Referring to the instructions in the Pierce™ BCA Protein Assay Kit, the cell samples were tested for protein concentration.
The samples were adjusted to the same concentration using lysis buffer and NuPAGE® LDS sample buffer containing 1 M DTT. The samples were heated at 95° C. for 5 minutes and centrifuged at low temperature and high speed. 20 μL of prepared protein sample and 4 μL of PageRuler Prestained Protein Ladder were added to the gel wells. The mixture was electrophoresed at a voltage of 80 V for 0.5 hours, and then electrophoresed for another 1.5 hours after the voltage was adjusted to 120 V. The gel was removed and proteins in the gel were transferred to IBlot™ 2 Transfer Stack at a voltage of 20V. After successful membrane transfer, the bands were cut out at 65 kDa to 40 kDa and 40 kDa to 30 kDa, respectively. The membrane was blocked with 5% non-fat milk at room temperature for 1 hour. The membrane was washed three times with 1×TBST, and incubated with IRAK4 antibody working solution at 4° C. overnight. The IRAK4 antibody working solution was discarded, and the membrane was washed three times with 1×TBST. After the corresponding membrane was incubated with Goat Anti-Rabbit IgG H&L (HRP) working solution and Goat Anti-Mouse IgG H&L (HRP) working solution at room temperature for 1 hour, the antibody working solutions were discarded, and the membrane was washed three times with 1×TBST. Referring to the instructions in the SuperSignal™ West Femto Maximum Sensitivity Substrate Kit, the reagents in the kit were mixed in equal volume proportions to prepare a luminescent mixture, and the membrane was incubated for 1 minute and removed for exposure.
WB assay: The results 24 hours after administration at 1 μM were divided into estimated <25%, <50%, <75%, and <100%.

| SMILES | IC50 (THP-1 cells; Homo sapiens, THP-1, Table 3) [nM] | IC50 (THP-1 cells; Table 4) [nM] | IC50 (IRAK4 kinase; Table 1) [nM] | IC50 (IRAK4 kinase; Table 2) [nM] | IC50 (THP-1 cells; Homo sapiens, THP-1, Table 4) [nM] | Western Blot results 24 hours after administration at a drug concentration of 1 μM [1] [%] |
| --- | --- | --- | --- | --- | --- | --- |
| CC(C)(O)c1cc2nn(CCN3CCN(CC(=O)NCCOCCOCCNc4cccc5c4C(=O)N(C4CCC(=O)NC4=O)C5=O)C3=O)cc2cc1NC(=O)c1cccc(C(F)(F)F)n1 (centres unmarked) [III-2] | ≥ 10000 | ≥ 10000 | 100 to 1000 | 100 to 1000 |  |  |
| CC(C)(O)c1cc2nn(CCN3CCN(CC(=O)NCCCCNc4cccc5c4C(=O)N(C4CCC(=O)NC4=O)C5=O)C3=O)cc2cc1NC(=O)c1cccc(C(F)(F)F)n1 (centres unmarked) [III-10] | 1000 to 10000 | 1000 to 10000 | 100 to 1000 | 100 to 1000 |  |  |
| CC(C)(O)c1cc2nn(CCN3CCN(CC(=O)N4CCC5(CC4)CCN(c4cccc6c4C(=O)N(C4CCC(=O)NC4=O)C6=O)CC5)C3=O)cc2cc1NC(=O)c1cccc(C(F)(F)F)n1 (centres unmarked) [III-11] |  |  | 100 to 1000 | 100 to 1000 | 1000 to 10000 |  |
| COc1cc2c(cc1NC(=O)c1cccc(C(F)(F)F)n1)CN(CC(=O)N1CCC3(CC1)CCN(c1cccc4c1C(=O)N(C1CCC(=O)NC1=O)C4=O)CC3)C2=O (centres unmarked) [III-24] | 100 to 1000 | 100 to 1000 | 100 to 1000 | 100 to 1000 |  |  |
| COc1cc2c(cc1NC(=O)c1cccc(C(F)(F)F)n1)CN(CCC(C)(C)C(=O)N1CCC3(CC1)CCN(c1cccc4c1C(=O)N(C1CCC(=O)NC1=O)C4=O)CC3)C2=O (centres unmarked) [III-25] | 1000 to 10000 | 1000 to 10000 | 100 to 1000 | 100 to 1000 |  |  |
| COc1cc2c(cc1NC(=O)c1cccc(C(F)(F)F)n1)CN(CCC(C)(C)C(=O)N1CCC3(CCC(C(=O)N[C@H](C(=O)N4C[C@H](O)C[C@H]4C(=O)N[C@@H](C)c4ccc(-c5scnc5C)cc4)C(C)(C)C)CC3)CC1)C2=O [III-26] | 1000 to 10000 | 1000 to 10000 | < 100 | < 100 |  |  |
| COc1cc2nn(CCN3CCN(CC(=O)N4CCC5(CCC(C(=O)N[C@H](C(=O)N6C[C@H](O)C[C@H]6C(=O)N[C@@H](C)c6ccc(-c7scnc7C)cc6)C(C)(C)C)CC5)CC4)CC3)cc2cc1NC(=O)c1cccc(C(F)(F)F)n1 [III-29] |  |  | < 100 | < 100 | 1000 to 10000 |  |
| COc1cc2nn(CCN3CCN(CC(=O)N4CCC5(CC4)CCN(c4ncc(Nc6cccc7c6C(=O)N(C6CCC(=O)NC6=O)C7=O)cn4)CC5)CC3)cc2cc1NC(=O)c1cccc(C(F)(F)F)n1 (centres unmarked) [III-30] |  |  |  | < 100 | 1000 to 10000 |  |
| COc1cc2nn(CCN3CCN(CC(=O)N4CC5(CC(CC(=O)N[C@H](C(=O)N6C[C@H](O)C[C@H]6C(=O)N[C@@H](C)c6ccc(-c7scnc7C)cc6)C(C)(C)C)C5)C4)CC3)cc2cc1NC(=O)c1cccc(C(F)(F)F)n1 [III-31] |  |  | < 100 | < 100 | 1000 to 10000 |  |
| COc1cc2nn(CCN3CCN(CC(=O)N4CCC5(CCC(N[C@H](C(=O)N6C[C@H](O)C[C@H]6C(=O)N[C@@H](C)c6ccc(-c7scnc7C)cc6)C(C)(C)C)CC5)CC4)C3=O)cc2cc1NC(=O)c1cccc(C(F)(F)F)n1 [III-35] |  |  |  | < 100 | 100 to 1000 |  |
| COc1cc2nn(CCN3CCN(c4cccc5c4C(=O)N(C4CCC(=O)NC4=O)C5=O)CC3)cc2cc1NC(=O)c1cccc(C(F)(F)F)n1 (centres unmarked) [III-39] |  |  |  | < 100 |  | <25 |
| COc1cc2c(cc1NC(=O)c1cccc(C(F)(F)F)n1)CN(CCC(C)(C)C(=O)NC1CCN(c3cccc4c3C(=O)N(C3CCC(=O)NC3=O)C4=O)CC1)C2=O (centres unmarked) [III-41] |  |  |  | < 100 |  | <25 |
| COc1cc2nn(CCN3CC4CCC(C3)N4CC(=O)N3CCC4(CC3)CCN(c3cccc5c3C(=O)N(C3CCC(=O)NC3=O)C5=O)CC4)cc2cc1NC(=O)c1cccc(C(F)(F)F)n1 (centres unmarked) [III-54] |  |  |  | < 100 |  | <25 |
| COc1cc2nn(CCN3CCN(CC(=O)N4CCC5(CCC(Oc6cccc7c6C(=O)N(C6CCC(=O)NC6=O)C7=O)CC5)CC4)CC3)cc2cc1NC(=O)c1cccc(C(F)(F)F)n1 (centres unmarked) [III-56] |  |  |  | < 100 |  | <25 |
